According to patent publication US20230312562A1, “TETRAHYDRO-3H-PYRAZOLO QUINOLONE AND TETRAHYDRO-3H-PYRROLO[3,2-F]QUINOLINE -CONTAINING COMPOUNDS AND USES THEREOF” (Purdue Research Foundation, priority 2020, published 2023):

What was measured:
Ovcar-3 = assay: NCI-60 sulforhodamine B assay, Ovcar-3; type: cell-based; conditions: Ovcar-3, ovarian, 48 h
Description: (§1) Compounds HSD1787, 22, 23 and 27 were sent to the National Cancer Institute (NCI), Bethesda, Maryland (Drug Evaluation Branch), to evaluate the effects of compounds on the NCI-60 cell panel. According to the NCI protocol, the compounds were evaluated at five concentrations (10-fold dilutions) with the highest concentration being 100 μM and the incubation period was 48 h. A sulforhodamine B assay was used to assay the effects of the compounds on the cancer cells. […] The most sensitive cell lines (total growth inhibition, TGI, could be achieved with concentrations less than 1 μM of some of the compounds) were MDA-MB-435 (melanoma), SF-539 (glioma), A498 (renal), MDA-MB-468 (breast), OVCAR-3 (ovarian), NCI-H522 (non-small cell lung cancer). On the other hand, UACC-257 and SK-MEL-28 (both melanoma), TK-10 (renal), OVCAR-4 (ovarian) and T-47D (breast) were resistant to the compounds as 10 μM could not cause total growth inhibition (Table 2). […] This is in line with current appreciation that tumor mutational burden and not necessarily the anatomical origin of the tumor determines treatment strategies or outcomes.
(§2) According to the National Cancer Institute, Bethesda, Maryland (the protocol of the Drug Evaluation Branch), the effects of compounds are measured as follows: Cell suspensions are diluted to a target cell density of 5000-40,000 cells per well (based on cell growth characteristics) in a 96-well microtiter plates. The test compounds were evaluated at five concentrations (10-fold dilutions) with the highest concentration being 100 μM. The incubation period was 48 h under 5% carbon dioxide atmosphere and 100% humidity. A sulforhodamine B assay was used to assay the cells. Optical densities of the wells were read by a plate reader the optical densities were processed into GI50 (the concentration that causes 50% growth inhibition).
(§3) The NCI renamed the IC50 value, the concentration of compound that causes 50% growth inhibition, as follows:
(§4) The control is the well not treated with test agent (https://dtp.cancer.gov/databases_tools/docs/compare/compare_methodology.htm).

MDA-MB-468 = assay: NCI-60 sulforhodamine B assay, MDA-MB-468; type: cell-based; conditions: MDA-MB-468, breast, 48 h
Description: as §1, §2, §3, §4

Ovcar-4 = assay: NCI-60 sulforhodamine B assay, Ovcar-4; type: cell-based; conditions: Homo sapiens; Ovcar-4, ovarian, 48 h
Description: as §1, §2, §3, §4

SF-539 = assay: NCI-60 sulforhodamine B assay, SF-539; type: cell-based; conditions: SF-539, CNS, 48 h
Description: as §1, §2, §3, §4

SR = assay: NCI-60 sulforhodamine B assay, SR; type: cell-based; conditions: Homo sapiens, lymphoma, 48 h
Description: as §1, §2, §3, §4

TK-10 = assay: NCI-60 sulforhodamine B assay, TK-10; type: cell-based; conditions: Homo sapiens; TK-10, renal, 48 h
Description: as §1, §2, §3, §4

NCI/ADR-RES = assay: NCI-60 sulforhodamine B assay, NCI/ADR-RES; type: cell-based; conditions: ovarian, 48 h
Description: as §1, §2, §3, §4

Ovcar-8 = assay: NCI-60 sulforhodamine B assay, Ovcar-8; type: cell-based; conditions: Homo sapiens; Ovcar-8, ovarian, 48 h
Description: as §1, §2, §3, §4

MDA-MB-231 = assay: Inhibition of MDA-MB-231 viability/growth at 1 μM, 72 h; type: cell-based; conditions: Homo sapiens, MDA-MB-231; 1 μM compound, 72 h incubation
MCF7 = assay: NCI-60 sulforhodamine B assay, MCF7; type: cell-based; conditions: Homo sapiens; MCF7, breast, 48 h
Description: as §1, §2, §3, §4

MDA-MB-435 = assay: NCI-60 sulforhodamine B assay, MDA-MB-435; type: cell-based; conditions: MDA-MB-435, melanoma, 48 h
Description: as §1, §2, §3, §4

K-562 = assay: NCI-60 sulforhodamine B assay, K-562; type: cell-based; conditions: Homo sapiens, K562; K-562, leukemia, 48 h
Description: as §1, §2, §3, §4

UACC-257 = assay: NCI-60 sulforhodamine B assay, UACC-257; type: cell-based; conditions: Homo sapiens; UACC-257, melanoma, 48 h
Description: as §1, §2, §3, §4

A498 = assay: NCI-60 sulforhodamine B assay, A498; type: cell-based; conditions: A498, renal, 48 h
Description: as §1, §2, §3, §4

SF-295 = assay: NCI-60 sulforhodamine B assay, SF-295; type: cell-based; conditions: Homo sapiens; SF-295, CNS, 48 h
Description: as §1, §2, §3, §4

tubulin = assay: Inhibition of tubulin polymerization; type: biochemical; conditions: at 10 μM; similar to inhibition by colchicine
NCI-H522 = assay: NCI-60 sulforhodamine B assay, NCI-H522; type: cell-based; conditions: NCI-H522, non-small cell lung, 48 h
Description: as §1, §2, §3, §4

T-47D = assay: NCI-60 sulforhodamine B assay, T-47D; type: cell-based; conditions: Homo sapiens, T47D, breast, 48 h
Description: as §1, §2, §3, §4

SK-MEL-28 = assay: NCI-60 sulforhodamine B assay, SK-MEL-28; type: cell-based; conditions: Homo sapiens; SK-MEL-28, melanoma, 48 h
Description: as §1, §2, §3, §4

Nc1n[nH]c2ccc([C@@H]3Nc4ccc5[nH]ncc5c4[C@H]4C5CC[C@@H](C5)[C@@H]34)cc12 (stereo in doubt) [HSD1787, 5-(6,7,7a,8,9,10,11,11a-Octahydro-3H-8,11-methanopyrazolo[4,3-a]phenanthridin-7-yl)-1H-indazol-3-amine]
GI50 (Ovcar-3; Homo sapiens): 243 nM
TGI (total growth inhibition) (Ovcar-3): 634 nM
GI50 (MDA-MB-468; Homo sapiens): 269 nM
TGI (total growth inhibition) (MDA-MB-468): 2730 nM
GI50 (Ovcar-4): 2140 nM
GI50 (SF-539; Homo sapiens): 232 nM
TGI (total growth inhibition) (SF-539): 654 nM
GI50 (SR): 233 nM
GI50 (TK-10): 3860 nM
GI50 (NCI/ADR-RES; Homo sapiens): 480 nM
TGI (total growth inhibition) (NCI/ADR-RES): > 10000 nM
GI50 (Ovcar-8): 479 nM
inhibition at 1 µM (MDA-MB-231): 95%
GI50 (MCF7): 375 nM
GI50 (MDA-MB-435; Homo sapiens): 124 nM
TGI (total growth inhibition) (MDA-MB-435): 329 nM
GI50 (K-562): 264 nM
GI50 (UACC-257): > 10000 nM
TGI (total growth inhibition) (A498): 646 nM
GI50 (A498; Homo sapiens): 179 nM
GI50 (SF-295): 340 nM
Inhibition of the polymerization of tubulin (tubulin): inhibited the polymerization of tubulin
GI50 (NCI-H522; Homo sapiens): 210 nM
TGI (total growth inhibition) (NCI-H522): 868 nM
GI50 (T-47D): > 10000 nM
GI50 (SK-MEL-28): 934 nM
